The source of these data is US10144736B2 (Gilead Sciences, Inc., priority 2006, dated 2018).

Read-outs that look alike come from different tables or passages of the source.

Data set [1] concerns HCV replicon. Description: Anti-HCV replicon assay (EC50, luciferase readout). It is filed as cell-based, hepatitis C virus. The conditions noted are these: human hepatoma Huh-7 cell line harbouring a HCV replicon, 3 days incubation, luciferase signal. As for the experimental part: (§1) The anti HCV activity of specifically substituted pteridine derivatives was tested in a human hepatoma Huh-7 cell line harbouring a HCV replicon. The assay comprised the following steps:
(§2) Step 1: compound preparation and serial dilution involved the following alternatives, depending upon the water solubility of pteridine derivative being tested:
(§3) • 1. with respect to water soluble pteridine derivatives, 500 μL of solution in cell media (DMEM, 10% FBS, P/S, L-Glutamine) was prepared with a concentration that is twice the concentration of the starting final serial dilution concentration. 150 μL of the solution was added to the pre-specified wells in column 1 of a 96-well cell culture plate (PerkinElmer, white plate, cat. #6005181, for EC50 assay; black plate, cat. #6005182 for CC50 assay). The rest of the plate, i.e. columns 2-12, was filled with 100 μL of cell media. The plate was then placed on a Precision 2000 Workstation in order to start serial dilution. Pteridine compounds were diluted three times each step from column 1 to column 10. Column 11 was used as a blank control (no pteridine compound added). • 2. With respect to poorly water soluble pteridine derivatives, DMSO was used as a solvent, and serial dilution was performed in 50% DMSO in water, in a 384-well plate. A solution containing the relevant compound at 100-fold the concentration of the starting final serial dilution concentration was prepared in 50% DMSO in water and added to the pre-specified wells in column 1 of a polypropylene 384-well plate. This plate was then placed on a Precision 2000 Workstation in order to start serial dilution. After serial dilution, 2 μL of the solution was transferred from the 384-well plate to a 96-well cell culture plate containing 100 μL of cell media on a Biomek FX Workstation. The DMSO concentration in the final assay condition was 0.5% after cells have been added to the plate and the total volume in each well was brought to 200 μL. Step 2: to each well of the serial dilution plate prepared in step 1, 100 μL of cell media containing 6000 suspended Huh-7 HCV replicon cells was added with a Multidrop workstation. Plates were incubated for 3 days at 37° C. with 5% CO2. Step 3: detection: • 1) with respect to the EC50 assay, the media in a 96-well cell culture plate was aspirated with a Biotek EL405 plate-washer. A volume of 200 μL of a solution containing a 1:1 mixture of a cell-lysis buffer (commercially available from Promega, Luciferase Cell Culture Lysis 5X Reagent, cat. #E1531) and a luciferase substrate solution (commercially available from Promega, Luciferase Assay, cat. #E4550) was added to each well of the plate with Multidrop. The plate was incubated for 30 minutes at room temperature before the luminescence signal was measured with a TopCount plate-reader. • 2) with respect to the CC50 assay, 100 μL of a pre-mixed CellTiter-Glo (commercially available from Promega, cat. #G7572) solution was added directly to the cell culture in each well of the plate and the luminescence signal was measured with a TopCount plate-reader after 10 minutes of incubation at room temperature.
(§4) Results are expressed by the following data: • the 50% effective concentration (EC50), i.e. the concentration that protects 50% of the cell monolayer from virus-induced cythopathic effect. • the 50% cytostatic concentration (CC50), i.e. the concentration that results in 50% inhibition of cell growth.

Data set [2] concerns Huh-7 HCV replicon cells. In words: CC50 assay (CellTiter-Glo) in Huh-7 HCV replicon cells. It is filed as cell-based, human. The conditions noted are these: 3 days incubation, 50% cytostatic concentration. The method, then: as §1, §2, §3, §4

As for `Nc1nc(N2CCOCC2)c2nc(-c3cccc(F)c3F)cnc2n1` [Example 113, 6-(2,3-difluorophenyl)-4-morpholino-pteridin-2-ylamine], the EC50 in data set [1] lay within 1 to 10 µM. Besides, the CC50 in data set [2] was above 20 µM.

For the compound `Nc1nc(N2CCOCC2)c2nc(-c3ccc(NC(=O)C4CC4)cc3)cnc2n1` [Example 142, Cyclopropane carboxylic acid[4-(2-amino-4-morpholin-4-yl-pteridin-6-yl)-phenyl]-amide], the EC50 in data set [1] (read-out: EC50) lay within 0.3 to 1 µM. The CC50 in data set [2] is below 10 µM.
